Results from publication PMC12143348, “Rapid and reversible fluorescent probe enables repeated snapshot imaging of AMPA receptors during synaptic plasticity” (Science Advances, 2025).
“Also recorded” adds a separate entry of the source.

Tests used:
[1] = test system: cultured hippocampal neurons; assay: cLTP stimulation and quantification of cell-surface AMPARs in spines of cultured hippocampal neurons; type: cell-based, mouse; settings: [AP5] = 50 µM, [MK-801] = 20 µM, [KN93] = 5 µM, [BFA] = 25 µM; 200 µM glycine 15 min
Experimental: After washing the cells with Hepes-based ACSF, 100 nM PFQX1(AF488) was added to the dish. The cells were scanned to obtain “basal state” images. Then, the cells were washed three times with cLTP stimulation buffer (Hepes-based ACSF except for MgCl2 supplemented with 20 μM bicuculline and 1 μM strychnine) to remove PFQX1(AF488). cLTP was induced by 200 μM glycine in cLTP stimulation buffer for 15 min at room temperature. After washing the cells with cLTP incubation buffer (Hepes-based ACSF supplemented with 20 μM bicuculline and 1 μM strychnine), the cells were incubated for 60 min at room temperature. Last, 100 nM PFQX1(AF488) was added to the dish, and images were scanned to obtain “after cLTP” images. Inhibitors (50 μM AP5 and 20 μM MK-801 for NMDARs and 5 μM KN93 for CaMKII and 25 μM […] for exocytosis) were added to cLTP stimulation buffer and cLTP incubation buffer. To quantify the fluorescence intensity in spines, the average signal intensity of ROIs set on dendritic spines or dendritic shafts was calculated by ZEN blue software after subtracting background fluorescence. The fold change value was calculated using the following equation: (fluorescence intensity of “after cLTP” images)/(fluorescence intensity of “basal state” images).
To label endogenous AMPARs, 10 μM CAM2(TCO) in the culture medium was gently added to the hippocampal neurons on a glass-bottom dish to a final concentration of 2 μM CAM2(TCO). The cells were incubated for 2 hours at 37°C. In the second step, the culture medium was removed, and the cells were treated with 100 nM Tz(ST647) for 5 min in Hepes-based ACSF at room temperature. To quench excess Tz(ST647), 1 μM TCO-OH in Hepes-based ACSF was added. Then, the cells were treated with 100 nM PFQX1(AF488). Imaging was performed with confocal microscopy.

AMPARs [2] = assay: Staining of AMPARs in acute cerebellar slices; type: binding, mouse; settings: 10 µM NBQX with 30 nM PFQX1(AF488), 5 min; molecular layer
Experimental: following secondary antibodies were used: donkey anti-mouse CF568 conjugated (Sigma, […]
1:1,000) and anti-rabbit Alexa Fluor Plus 488 conjugated (Invitrogen, A32731, 1,000).
Imaging was performed with confocal microscopy.
With two-step labeling, the cells were labeled as described in “Two -step labeling and PFQX1(AF488)staining in cultured neurons,” followed by immunostaining.
In fig. S9A, the cells were incubated with 500 nM CellTracker Red CMPTX (Invitrogen) instead of Calcein Red AM for 30 min at 37 °C to visualize the intracellular region before the immunostaining.
Preparation and staining of cerebellar acute brain slices
C57BL/6J mice (3 weeks) were anesthetized with isoflurane, and their brains were isolated and immediately transferred to ice-cold cutting solution buffer (120 mM Choline Chloride, 3 mM KCl, 8 mM MgCl2, 1.25 mM NaH2PO4, 28 mM NaHCO3, 22 mM Glucose, and 0.5 mM Sodium ascorbate) gassed with 5% CO2 and 95% O2 and incubated for 5 min. Sagittal cerebellar slices were cut with a microslicer (Neo-linear slicer NLS-MT; DOSAKA EM) in cutting solution buffer and then incubated in ACSF […]
NaHCO3, 10 mM Glucose) gassed with 5% CO 2 and 95% O 2 at 37 °C.
Acute slices were transferred to glass bottom dishes and treated with 30 nM PFQX1(AF488) in HEPES-based ACSF for 5 min. […]
Scale bars, 500 µm. (F) Quantification of probe intensity in Ε. […]

native AMPARs = assay: Concentration-dependent binding of PFQX1(AF488) to AMPARs in primary cultured hippocampal neurons; set-up: species or system mouse; settings: 10 µM NBQX added after 100 nM PFQX1(AF488); cultured hippocampal neurons
Experimental: We modified the Banker’s culture method of hippocampal neurons ([59]). Glass-bottom dishes (14 mm φ, Matsunami) were coated with poly-D-lysine (Sigma-Aldrich) and washed three times with sterile dH2O. Hippocampi from 16-day-old ICR mouse embryos were aseptically dissected and digested with 0.25% (w/v) trypsin (Nacalai Tesque) for 20 min at 37°C. The cells were resuspended in Neurobasal Plus medium supplemented with 10% FBS, 1 mM GlutaMAX I (Invitrogen), penicillin (100 U/ml), and streptomycin (100 μg/ml) and filtered by Cell Strainer (100 μm, Falcon) followed by centrifugation at 1000 rpm for 5 min. The cells were resuspended in Neurobasal Plus medium supplemented with 2% of B-27 Plus Supplement, 1 mM GlutaMAX I (Invitrogen), penicillin (100 U/ml), and streptomycin (100 μg/ml) and plated at a density of 2 × 10^4 cells on glass-bottom dishes. Precultured cortical astrocytes on glass coverslips (13 mm φ) were transferred to the dishes so that astrocytes were faced to neurons. The cultures were maintained at 37°C in a 95% air and 5% CO2 humidified incubator. The culture medium was replaced every 7 days, and the neurons were used at 16 to 18 days in vitro (DIV).
Calcein Red AM (50 nM; AAT Bioquest) was added to the cultured neurons for 30 min at 37°C to visualize the intracellular region. The cells were washed with Hepes-based ACSF [25 mM Hepes (pH 7.4), 140 mM NaCl, 5 mM KCl, 1.3 mM CaCl2, 2 mM MgCl2, and 33 mM glucose], and 100 nM PFQX1(AF488) in Hepes-based ACSF was added to the dish.
For evaluating the concentration dependency of PFQX1(AF488), the cells were treated with 1 nM PFQX1(AF488). Then, PFQX1(AF488) in Hepes-based ACSF was added stepwise to the dish to a final concentration of 3, 10, 30, 100, 300, and 1000 nM. To quantify the concentration dependency after cLTP, the procedure described above was conducted after cLTP stimulation as described in the section “cLTP and quantification of cell-surface AMPARs.” The average intensity of ROIs set on spines was calculated by ZEN blue software after subtracting background fluorescence. The intensity was fitted with KaleidaGraph to calculate the equilibrium constant value using the following equation: a + (b − a)/(1 + (x/c)^d). The equilibrium constant is regarded as the Kd in this study.

AMPARs [3] = biological target: AMPARs; set-up: method as in earlier work; settings: read-out: inhibition constant (Ki) for AMPARs; cited from earlier work
GluA1–4 = assay: Fluorescence Ca2+ assay, inhibition of glutamate-induced response in HEK293T cells transfected with GluA1-4; type: cell-based, mouse; settings: 30 µM glutamate-induced Ca2+ response; GluA1–4 in HEK293T cells
Experimental: HEK293T cells transfected with Ca2+-permeable GluA1–4 (GluA1 flip(Q), GluA2flip(Q), GluA3flip(Q) (Y454A/R461G), and GluA4flip(Q)) or GluK2(Q) were seeded on the 96 well plate. The cells were loaded with 5 µM Cal-520 AM (AAT Bioquest) in the culture medium for 2 h and washed with HBS using AquaMax 2000 (Molecular devices). The imaging experiment was carried out in an HBS buffer. For the fluorescence Ca2+ imaging, PFQX-amine was pretreated to the cells for 3 min followed by the addition of 30 µM glutamate with 100 µM cyclothiazide as a desensitization inhibitor for AMPARs and 100 µM kainic acid with 100 µM BPAM344 as a desensitization inhibitor for kainate receptors.
Fluorescent intensity of Cal-520 was obtained using FlexStation3 (Molecular devices), and analyzed with SoftMax Pro 7 (Molecular devices). ΔRFU was defined as the difference between the maximum intensity value after adding glutamate and the average intensity value before adding the glutamate. ΔRFU was fitted with KaleidaGraph.
Immunostaining of cultured neurons
The cultured hippocampal neurons were fixed with cold methanol for 5 min and washed with PBS three times. Fixed cells were incubated with Blocking One Histo (Nacalai Tesque) for 10 min. The cells were washed with PBS containing 0.05% Tween 20 (PBS-T) once and incubated with primary antibodies in PBS-T containing 5% Blocking One Histo at room temperature for 2 h. […]

[4] = test system: Halo-tag-fused GluA2 in HEK293T cells; assay: Exocytosis assay of AMPARs in HEK293T cells (Halo-tag pulse labeling); type: cell-based; settings: 25 µM, 2 h at 37 °C
Experimental: Exocytosis assay of AMPARs in HEK293T cells
HEK293T cells expressing Halo-tag-GluA2 flip(Q)-3’UTR were treated with Halo-tag ligand-Alexa488 (HTL(AF488)) for 30 min at room temperature as a first pulse. After washing with DMEM three times, the cells were incubated with 25 µM brefeldin A or DMSO for 2 h at 37 °C in a 95% air and 5% CO2 humidified incubator. Then, HTL(AF647) was added to the dishes and incubated for 15 min at room temperature as a second pulse to visualize spontaneous exocytosed AMPARs. Labeled cells were fixed with 4% PFA for 15 min. The fluorescent images were obtained using confocal […]
General materials and methods for organic synthesis
All chemical reagents and solvents were purchased from commercial sources (FUJIFILM Wako pure chemical, TCI chemical, Sigma-Aldrich, Click Chemistry Tools, BroadPharm) and were used without further purification. Thin-layer chromatography (TLC) was performed on silica gel 60 F254 precoated aluminum sheets (Merck).
Chromatographic purification was performed by flash column chromatography on silica gel 60 N (neutral, 40–50 µm, Kanto Chemical). 1H-NMR spectra were recorded in deuterated solvents on an Avance III HD 300 MHz or 500 MHz (Bruker). […] High-resolution mass spectra were measured on a Compact (Bruker) equipped with electron spray ionization (ESI). […]

NC(CCCP(=O)(O)O)C(=O)O (stereo not drawn) [AP5]
effect on the increase in PFQX1(AF488) fluorescence in spines after cLTP stimulation [1]: suppressed the increase in PFQX1(AF488) fluorescence; also recorded: increase in both PFQX1(AF488) and ST647 fluorescence was not observed

COc1ccc(S(=O)(=O)N(CCO)c2ccccc2CN(C)C/C=C/c2ccc(Cl)cc2)cc1 [KN93]
effect on the increase in PFQX1(AF488) fluorescence in spines after cLTP stimulation [1]: suppressed the increase in PFQX1(AF488) fluorescence

C[C@]12N[C@H](Cc3ccccc31)c1ccccc12 [MK-801]
effect on the increase in PFQX1(AF488) fluorescence in spines after cLTP stimulation [1]: suppressed the increase in PFQX1(AF488) fluorescence

NS(=O)(=O)c1cccc2c1c([N+](=O)[O-])cc1[nH]c(=O)c(=O)[nH]c12 [NBQX, 2,3-dioxo-6-nitro-1,2,3,4-tetrahydrobenzo(f)quinoxaline-7-sulfonamide, reference compound]
competitive inhibition of PFQX1(AF488) binding in cerebellar slices (AMPARs [2]): significantly weakened
competitive inhibition of PFQX1(AF488) binding in neurons (native AMPARs): fluorescent signals from the puncta disappeared

O=c1[nH]c2cc(-n3cccc3)c(C(F)(F)F)cc2[nH]c1=O [PFQX, 6-pyrrolyl-7-trifluoromethyl-quinoxaline-2,3-dione]
Ki (AMPARs [3]): 170 nM
antagonism of AMPAR subunits (GluA1–4): antagonized AMPARs in a subunit-nonspecific manner

C[C@H]1CCC/C=C/[C@@H]2C[C@H](O)C[C@H]2[C@H](O)/C=C/C(=O)O1 [brefeldin A]
effect on spontaneous exocytosis of Halo-tag-fused AMPAR to the cell surface [4]: markedly suppressed the spontaneous exocytosis
effect on the increase in PFQX1(AF488) fluorescence in spines after cLTP stimulation [1]: inhibited the fluorescent increase in PFQX1(AF488)
